# Measured values published in PubChem BioAssay (NCI).
#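 In this assay, cells in 96-well plates receive the compound at five concentrations for 48 hours. Endpoints are linearly interpolated between the surrounding concentrations. The concentration for full growth arrest is given as TGI.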
# Key:
# Assay in all cases: DTP human tumour cell line panel, 48 h
# K-562 leukemia = system: K-562 leukemia
# ACHN renal = system: ACHN renal
# KM12 colon = system: KM12 colon
# NCI-H522 lung = system: NCI-H522 lung
# LOX IMVI melanoma = system: LOX IMVI melanoma
# HOP-92 NSCLC = system: HOP-92 NSCLC
# T-47D breast = system: T-47D breast
# HT29 colon = system: HT29 colon
# DU-145 prostate = system: DU-145 prostate
# U251 CNS = system: U251 CNS
# 786-0 renal = system: 786-0 renal
# TK-10 renal = system: TK-10 renal
# MCF7 breast = system: MCF7 breast
# HCT-116 colon = system: HCT-116 colon
# A498 renal = system: A498 renal
# SF-539 CNS = system: SF-539 CNS
# MDA-MB-231 breast = system: MDA-MB-231 breast
# BT-549 breast = system: BT-549 breast
smiles,measurement,setting,value
CC1(C)CS(=O)(=O)CC(C)(C)C(=N/N)/C1=N\N,TGI,K-562 leukemia,> 100 µM
same,TGI,ACHN renal,> 100 µM
same,TGI,KM12 colon,> 100 µM
same,TGI,NCI-H522 lung,> 100 µM
same,TGI,LOX IMVI melanoma,> 100 µM
same,TGI,HOP-92 NSCLC,> 100 µM
same,TGI,T-47D breast,> 100 µM
same,TGI,HT29 colon,> 100 µM
same,TGI,DU-145 prostate,> 100 µM
same,TGI,U251 CNS,> 100 µM
same,TGI,786-0 renal,> 100 µM
same,TGI,TK-10 renal,> 100 µM
same,TGI,MCF7 breast,> 100 µM
same,TGI,HCT-116 colon,> 100 µM
same,TGI,A498 renal,> 100 µM
same,TGI,SF-539 CNS,> 100 µM
COc1cc(OC)c(/C=C2\N=C(C)N(Nc3nnc(NN4C(=O)/C(=C/c5c(OC)cc(OC)cc5OC)N=C4C)c4ccccc34)C2=O)c(OC)c1,TGI,K-562 leukemia,> 100 µM
same,TGI,ACHN renal,> 100 µM
same,TGI,KM12 colon,> 100 µM
same,TGI,NCI-H522 lung,> 100 µM
same,TGI,LOX IMVI melanoma,> 100 µM
same,TGI,HOP-92 NSCLC,> 100 µM
same,TGI,HT29 colon,> 100 µM
same,TGI,U251 CNS,> 100 µM
same,TGI,786-0 renal,> 100 µM
same,TGI,HCT-116 colon,> 100 µM
same,TGI,A498 renal,> 100 µM
same,TGI,SF-539 CNS,> 100 µM
COc1cccc(/C=C2/Sc3scc(-c4ccccc4)[n+]3C2=O)c1O,TGI,ACHN renal,40.9 µM
same,TGI,MDA-MB-231 breast,79.2 µM
same,TGI,KM12 colon,40.4 µM
same,TGI,NCI-H522 lung,52.8 µM
same,TGI,LOX IMVI melanoma,36.4 µM
same,TGI,HOP-92 NSCLC,51.2 µM
same,TGI,HT29 colon,37.3 µM
same,TGI,DU-145 prostate,56.9 µM
same,TGI,U251 CNS,43.3 µM
same,TGI,786-0 renal,32.1 µM
same,TGI,TK-10 renal,68.4 µM
same,TGI,MCF7 breast,> 100 µM
same,TGI,HCT-116 colon,29.2 µM
same,TGI,BT-549 breast,45.1 µM
same,TGI,SF-539 CNS,47.6 µM
COc1ccc(N2C(=O)C3c4[nH]c5ccc(C)cc5c4C4CCC(C)CC4C3C2=O)cc1 (configuration not stated),TGI,K-562 leukemia,> 100 µM
same,TGI,ACHN renal,> 100 µM
same,TGI,MDA-MB-231 breast,> 100 µM
same,TGI,NCI-H522 lung,> 100 µM
same,TGI,LOX IMVI melanoma,> 100 µM
same,TGI,HOP-92 NSCLC,> 100 µM
same,TGI,HT29 colon,> 100 µM
same,TGI,DU-145 prostate,> 100 µM
same,TGI,U251 CNS,> 100 µM
same,TGI,786-0 renal,> 100 µM
same,TGI,TK-10 renal,> 100 µM
same,TGI,HCT-116 colon,> 100 µM
same,TGI,A498 renal,85 µM
same,TGI,BT-549 breast,> 100 µM
same,TGI,SF-539 CNS,> 100 µM
N#CC(C#N)=Cc1ccc2c(c1)OC(Cl)O2 (configuration not stated),TGI,K-562 leukemia,> 100 µM
same,TGI,ACHN renal,36 µM
same,TGI,KM12 colon,39.9 µM
same,TGI,LOX IMVI melanoma,38.2 µM
same,TGI,T-47D breast,> 100 µM
same,TGI,HT29 colon,44.9 µM
same,TGI,DU-145 prostate,63 µM
same,TGI,U251 CNS,41.4 µM
same,TGI,786-0 renal,35.2 µM
same,TGI,TK-10 renal,68.1 µM
same,TGI,MCF7 breast,> 100 µM
same,TGI,HCT-116 colon,38.6 µM
same,TGI,SF-539 CNS,38.6 µM
Cc1ccc(/C=N/Nc2cnccn2)s1,TGI,K-562 leukemia,> 100 µM
same,TGI,ACHN renal,> 100 µM
same,TGI,MDA-MB-231 breast,> 100 µM
same,TGI,KM12 colon,> 100 µM
same,TGI,NCI-H522 lung,> 100 µM
same,TGI,LOX IMVI melanoma,> 100 µM
same,TGI,HOP-92 NSCLC,> 100 µM
same,TGI,T-47D breast,> 100 µM
same,TGI,HT29 colon,> 100 µM
same,TGI,U251 CNS,> 100 µM
same,TGI,786-0 renal,> 100 µM
same,TGI,TK-10 renal,> 100 µM
same,TGI,MCF7 breast,> 100 µM
same,TGI,HCT-116 colon,> 100 µM
same,TGI,BT-549 breast,> 100 µM
same,TGI,SF-539 CNS,> 100 µM
O=c1cc(-c2cccc(Cl)c2)[nH]c2ncccc12,TGI,ACHN renal,> 100 µM
same,TGI,KM12 colon,> 100 µM
same,TGI,NCI-H522 lung,0.914 µM
same,TGI,LOX IMVI melanoma,> 100 µM
same,TGI,HOP-92 NSCLC,> 100 µM
same,TGI,HT29 colon,> 100 µM
same,TGI,DU-145 prostate,> 100 µM
same,TGI,U251 CNS,29.3 µM
same,TGI,786-0 renal,14.5 µM
same,TGI,TK-10 renal,> 100 µM
same,TGI,MCF7 breast,> 100 µM
same,TGI,HCT-116 colon,1.17 µM
same,TGI,A498 renal,> 100 µM
same,TGI,BT-549 breast,> 100 µM
same,TGI,SF-539 CNS,0.374 µM
CC(=O)C1=CSC2[C@H](NC(=O)Cc3ccccc3)C(=O)N2C1C(=O)OC(c1ccccc1)c1ccccc1 (some centres not stated),TGI,K-562 leukemia,> 100 µM
same,TGI,KM12 colon,> 100 µM
same,TGI,NCI-H522 lung,> 100 µM
same,TGI,HOP-92 NSCLC,> 100 µM
same,TGI,HT29 colon,> 100 µM
same,TGI,786-0 renal,> 100 µM
same,TGI,TK-10 renal,> 100 µM
same,TGI,HCT-116 colon,> 100 µM
same,TGI,A498 renal,> 100 µM
same,TGI,SF-539 CNS,> 100 µM
Cn1c(/C=C(\O)c2ccc(Cl)cc2)nc2ccccc21,TGI,K-562 leukemia,> 100 µM
same,TGI,ACHN renal,> 100 µM
same,TGI,KM12 colon,> 100 µM
same,TGI,NCI-H522 lung,> 100 µM
same,TGI,LOX IMVI melanoma,> 100 µM
same,TGI,HT29 colon,> 100 µM
same,TGI,U251 CNS,> 100 µM
same,TGI,786-0 renal,> 100 µM
same,TGI,HCT-116 colon,> 100 µM
same,TGI,SF-539 CNS,> 100 µM
O=c1cc(-c2ccccc2)[nH]c2cc(O)ccc12,TGI,K-562 leukemia,39.2 µM
same,TGI,ACHN renal,53.7 µM
same,TGI,KM12 colon,50.7 µM
same,TGI,NCI-H522 lung,76.2 µM
same,TGI,LOX IMVI melanoma,34.6 µM
same,TGI,HOP-92 NSCLC,70.3 µM
same,TGI,HT29 colon,46.1 µM
same,TGI,U251 CNS,90.7 µM
same,TGI,786-0 renal,> 100 µM
same,TGI,TK-10 renal,> 100 µM
same,TGI,HCT-116 colon,31.3 µM
same,TGI,A498 renal,> 100 µM
same,TGI,SF-539 CNS,> 100 µM
[N-]=[N+]=Nc1c(-c2ccccc2)c(Cl)nc2ccccc12,TGI,K-562 leukemia,> 100 µM
same,TGI,ACHN renal,> 100 µM
same,TGI,MDA-MB-231 breast,> 100 µM
same,TGI,KM12 colon,45.2 µM
same,TGI,NCI-H522 lung,> 100 µM
same,TGI,LOX IMVI melanoma,43.6 µM
same,TGI,HOP-92 NSCLC,> 100 µM
same,TGI,T-47D breast,> 100 µM
same,TGI,HT29 colon,52.5 µM
same,TGI,U251 CNS,> 100 µM
same,TGI,786-0 renal,> 100 µM
same,TGI,TK-10 renal,> 100 µM
same,TGI,HCT-116 colon,> 100 µM
same,TGI,A498 renal,72.2 µM
same,TGI,BT-549 breast,77.1 µM
same,TGI,SF-539 CNS,> 100 µM
NNC(=O)c1ccc(-n2nnc(C(=O)NN)c2C(=O)NN)cc1,TGI,K-562 leukemia,> 100 µM
same,TGI,ACHN renal,> 100 µM
same,TGI,MDA-MB-231 breast,> 100 µM
same,TGI,KM12 colon,> 100 µM
same,TGI,LOX IMVI melanoma,> 100 µM
same,TGI,HOP-92 NSCLC,> 100 µM
same,TGI,HT29 colon,> 100 µM
same,TGI,DU-145 prostate,> 100 µM
same,TGI,U251 CNS,> 100 µM
same,TGI,786-0 renal,> 100 µM
same,TGI,TK-10 renal,> 100 µM
same,TGI,MCF7 breast,> 100 µM
same,TGI,HCT-116 colon,> 100 µM
same,TGI,BT-549 breast,> 100 µM
COc1ccc(-c2c(N)n(-c3nc4ccccc4s3)c(=O)c3cc([N+](=O)[O-])ccc23)cc1,TGI,K-562 leukemia,> 100 µM
same,TGI,ACHN renal,69.9 µM
same,TGI,MDA-MB-231 breast,48.7 µM
same,TGI,KM12 colon,> 100 µM
same,TGI,NCI-H522 lung,23.5 µM
same,TGI,LOX IMVI melanoma,48.3 µM
same,TGI,HOP-92 NSCLC,> 100 µM
same,TGI,HT29 colon,> 100 µM
same,TGI,U251 CNS,35.2 µM
same,TGI,786-0 renal,16.2 µM
same,TGI,TK-10 renal,> 100 µM
same,TGI,MCF7 breast,> 100 µM
same,TGI,HCT-116 colon,> 100 µM
same,TGI,A498 renal,> 100 µM
same,TGI,BT-549 breast,> 100 µM
same,TGI,SF-539 CNS,19.6 µM
CCOC1(COP(=O)(OCc2ccccc2)OCc2ccccc2)COC(COP(=O)(OCc2ccccc2)OCc2ccccc2)(OCC)CO1 (configuration not stated),TGI,K-562 leukemia,> 100 µM
same,TGI,ACHN renal,> 100 µM
same,TGI,KM12 colon,> 100 µM
same,TGI,NCI-H522 lung,> 100 µM
same,TGI,LOX IMVI melanoma,> 100 µM
same,TGI,HOP-92 NSCLC,> 100 µM
same,TGI,HT29 colon,> 100 µM
same,TGI,U251 CNS,> 100 µM
same,TGI,786-0 renal,> 100 µM
same,TGI,TK-10 renal,> 100 µM
same,TGI,HCT-116 colon,> 100 µM
same,TGI,SF-539 CNS,> 100 µM
COC(=O)[C@@H]1CN(C(=O)CCc2ccccc2)C(=O)N1C(=O)OCc1ccccc1,TGI,K-562 leukemia,> 100 µM
same,TGI,ACHN renal,> 100 µM
same,TGI,MDA-MB-231 breast,> 100 µM
same,TGI,KM12 colon,> 100 µM
same,TGI,NCI-H522 lung,> 100 µM
same,TGI,LOX IMVI melanoma,> 100 µM
same,TGI,HOP-92 NSCLC,> 100 µM
same,TGI,T-47D breast,> 100 µM
same,TGI,HT29 colon,> 100 µM
same,TGI,DU-145 prostate,> 100 µM
same,TGI,U251 CNS,> 100 µM
same,TGI,786-0 renal,> 100 µM
same,TGI,TK-10 renal,> 100 µM
same,TGI,MCF7 breast,> 100 µM
same,TGI,HCT-116 colon,> 100 µM
same,TGI,A498 renal,> 100 µM
same,TGI,SF-539 CNS,> 100 µM
CN(CCO)c1nc2c(c(=O)[nH]1)CCC2,TGI,K-562 leukemia,> 100 µM
same,TGI,ACHN renal,> 100 µM
same,TGI,KM12 colon,> 100 µM
same,TGI,NCI-H522 lung,> 100 µM
same,TGI,LOX IMVI melanoma,> 100 µM
same,TGI,HOP-92 NSCLC,> 100 µM
same,TGI,HT29 colon,> 100 µM
same,TGI,U251 CNS,> 100 µM
same,TGI,786-0 renal,> 100 µM
same,TGI,TK-10 renal,> 100 µM
same,TGI,HCT-116 colon,> 100 µM
same,TGI,SF-539 CNS,> 100 µM
